Assay results from patent publication US4684719A, “α,α-trehalose fatty acid diester derivative” (SS Pharmaceutical Co., Ltd., priority 1984, dated 1987).
Values after ≈ are worked out from the molar mass of the structure shown.

What was measured:
[1] = system: Leukemia L-5178Y cells; experiment: Cell-killing activities (leukemia L-5178Y cells); format: cell-based; conditions: Mus musculus, L5178Y; 48 hours, 37° C., 5% CO2; live cells counted microscopically, probit diagram method
Experimental: (2) Cell-killing activities:
Leukemia L-5178Y cells were provided to a concentration of 2×10^5cells/ml in PRMI 1640 culture medium which contained 10% of bovine fetus albumin. To portions of the above-prepared culture medium, the compound of this invention was added to concentrations 3.125, 6.25, 12.5, 25, 50, 100 and 300 μg/ml respectively. After culturing them for 48 hours in a 5% CO2 incubator of 37° C., the numbers of live cells on respective portions of the culture were counted microscopically. Percentage proliferation was determined relative to Control and 50% Inhibitory Concentration (IC50) was obtained by the probit diagram method.

[2] = system: Ehrlich carcinoma; experiment: Activities against Ehrlich carcinoma (antitumor effect, survival time in mice); format: in vivo, ICR female mice; conditions: Mus musculus, ip, 720 h, intraperitoneal, once a day for 10 days, average survival time counted 30 days after implantation, read-out: Antitumor effect (T/C %)
Experimental: (1) Activities against Ehrlich carcinoma:
To 8 ICR female mice as a group, Ehrlich carcinoma cells were intraperitoneally implanted in an amount of 10^5 cells per mouse. From an elapsed time of 24 hours after the implantation, the compound (I) of this invention which was suspended in physiological saline containing 0.5% of CMC-Na was intraperitoneally administered in predetermined dosages (0.4 mg/kg, 4.0 mg/kg and 40.0 mg/kg), once a day and for 10 days.
Upon an elapsed time of 30 days after the implantation of the carcinoma, the survival time of each mouse was counted. The average survival time of Control Group (C) and that of Group (T), in which the compound of this invention was administered, were obtained respectively. Antitumor effect (T/C %) was then determined in accordance with the following equation. [formula]

CCCCCC(=O)O[C@H]1[C@H](O)[C@@H](O)[C@@H](O[C@H]2O[C@H](CO)[C@@H](OC(=O)CCCCC)[C@H](O)[C@H]2O)O[C@@H]1CO [Compound 13]
IC50 [1]: > 300 µg/mL | response vs control in vivo at 0.4 mg/kg [2]: 127% | response vs control in vivo at 4 mg/kg [2]: 120% | response vs control in vivo at 40 mg/kg [2]: 103%

CCCCCCCCCCCCCCCC(=O)O[C@H]1[C@H](O)[C@@H](O)[C@@H](O[C@H]2O[C@H](CO)[C@@H](OC(=O)CCCCCCCCCCCCCCC)[C@H](O)[C@H]2O)O[C@@H]1CO [Compound 18]
IC50 [1]: > 300 µg/mL | response vs control in vivo at 0.4 mg/kg [2]: 125% | response vs control in vivo at 4 mg/kg [2]: 216% | response vs control in vivo at 40 mg/kg [2]: 189%

CCCCCCCCCC(=O)O[C@H]1[C@H](O)[C@@H](O)[C@@H](O[C@H]2O[C@H](CO)[C@@H](OC(=O)CCCCCCCCC)[C@H](O)[C@H]2O)O[C@@H]1CO [Compound 15]
IC50 [1]: 11.2 µg/mL (≈ 17.2 µM) | response vs control in vivo at 0.4 mg/kg [2]: 121% | response vs control in vivo at 4 mg/kg [2]: 152% | response vs control in vivo at 40 mg/kg [2]: 188%

CCCCCCCCCCCCCC(=O)O[C@H]1[C@H](O)[C@@H](O)[C@@H](O[C@H]2O[C@H](CO)[C@@H](OC(=O)CCCCCCCCCCCCC)[C@H](O)[C@H]2O)O[C@@H]1CO [Compound 17]
IC50 [1]: 12.6 µg/mL (≈ 16.5 µM) | response vs control in vivo at 0.4 mg/kg [2]: 98% | response vs control in vivo at 4 mg/kg [2]: 203% | response vs control in vivo at 40 mg/kg [2]: 203%

CCCCCCCCCCCCCCCCCCCCCC(=O)O[C@H]1[C@H](O)[C@@H](O)[C@@H](O[C@H]2O[C@H](CO)[C@@H](OC(=O)CCCCCCCCCCCCCCCCCCCCC)[C@H](O)[C@H]2O)O[C@@H]1CO [Compound 20]
response vs control in vivo at 0.4 mg/kg [2]: 165% | response vs control in vivo at 4 mg/kg [2]: 179% | response vs control in vivo at 40 mg/kg [2]: 157%

CC(=O)O[C@H]1[C@H](O)[C@@H](O)[C@@H](O[C@H]2O[C@H](CO)[C@@H](OC(C)=O)[C@H](O)[C@H]2O)O[C@@H]1CO [Compound 11]
response vs control in vivo at 0.4 mg/kg [2]: 154% | response vs control in vivo at 4 mg/kg [2]: 105% | response vs control in vivo at 40 mg/kg [2]: 114%

CCCCCCCCCCCC(=O)O[C@H]1[C@H](O)[C@@H](O)[C@@H](O[C@H]2O[C@H](CO)[C@@H](OC(=O)CCCCCCCCCCC)[C@H](O)[C@H]2O)O[C@@H]1CO [Compound 16]
IC50 [1]: 8.4 µg/mL (≈ 11.9 µM) | response vs control in vivo at 0.4 mg/kg [2]: 102% | response vs control in vivo at 4 mg/kg [2]: 180% | response vs control in vivo at 40 mg/kg [2]: 225%

CCCC(=O)O[C@H]1[C@H](O)[C@@H](O)[C@@H](O[C@H]2O[C@H](CO)[C@@H](OC(=O)CCC)[C@H](O)[C@H]2O)O[C@@H]1CO [Compound 12]
response vs control in vivo at 0.4 mg/kg [2]: 141% | response vs control in vivo at 4 mg/kg [2]: 142% | response vs control in vivo at 40 mg/kg [2]: 114%

CCCCCCCC(=O)O[C@H]1[C@H](O)[C@@H](O)[C@@H](O[C@H]2O[C@H](CO)[C@@H](OC(=O)CCCCCCC)[C@H](O)[C@H]2O)O[C@@H]1CO [Compound 14]
IC50 [1]: 35.1 µg/mL (≈ 59 µM) | response vs control in vivo at 0.4 mg/kg [2]: 136% | response vs control in vivo at 4 mg/kg [2]: 117% | response vs control in vivo at 40 mg/kg [2]: 183%

CCCCCCCCCCCCCCCCCC(=O)O[C@H]1[C@H](O)[C@@H](O)[C@@H](O[C@H]2O[C@H](CO)[C@@H](OC(=O)CCCCCCCCCCCCCCCCC)[C@H](O)[C@H]2O)O[C@@H]1CO [Compound 19, 4,4'-di-O-stearoyl-α,α-trehalose]
response vs control in vivo at 0.4 mg/kg [2]: 98% | response vs control in vivo at 4 mg/kg [2]: 183% | response vs control in vivo at 40 mg/kg [2]: 198%
